For data set [1] the following is noted: cn_pd bond, 14-membered ring.
Data set [2] concerns the target human TYK2 (JH2domain-pseudokinase) (Homo sapiens (Human), UniProt P29597). As to the kind of experiment: TYK2 JH2 domain binding assay (KINOMEscan). On the procedure:
Binding constants for the compounds described herein against the JH2 domain were determined by the following protocol for a KINOMEscan® assay (DiscoveRx). A fusion protein of a partial length construct of human TYK2 (JH2domain-pseudokinase) (amino acids G556 to D888 based on reference sequence NP_003322.3) and the DNA binding domain of NFkB was expressed in transiently transfected HEK293 cells. From these HEK 293 cells, extracts were prepared in M-PER extraction buffer (Pierce) in the presence of Protease Inhibitor Cocktail Complete (Roche) and Phosphatase Inhibitor Cocktail Set II (Merck) per manufacturers' instructions. The TYK2 (JH2domain-pseudokinase) fusion protein was labeled with a chimeric double-stranded DNA tag containing the NFkB binding site fused to an amplicon for qPCR readout, which was added directly to the expression extract (the final concentration of DNA-tag in the binding reaction is 0.1 nM).
Streptavidin-coated magnetic beads (Dynal M280) were treated with a biotinylated small molecule ligand for 30 minutes at room temperature to generate affinity resins the binding assays. The liganded beads were blocked with excess biotin and washed with blocking buffer (SeaBlock (Pierce), 1% BSA, 0.05% Tween 20, 1 mM DTT) to remove unbound ligand and to reduce nonspecific binding.
The binding reaction was assembled by combining 16 μl of DNA-tagged kinase extract, 3.8 μl liganded affinity beads, and 0.18 μl test compound (PBS/0.05% Tween 20/10 mM DTT/0.1% BSA/2 μg/ml sonicated salmon sperm DNA)]. Extracts were used directly in binding assays without any enzyme purification steps at a ≥10,000-fold overall stock dilution (final DNA-tagged enzyme concentration <0.1 nM). Extracts were loaded with DNA-tag and diluted into the binding reaction in a two-step process. First extracts were diluted 1:100 in 1×binding buffer (PBS/0.05% Tween 20/10 mM DTT/0.1% BSA/2 […] sonicated salmon sperm DNA) containing 10 nM DNA-tag. This dilution was allowed to equilibrate at room temperature for 15 minutes and then subsequently diluted 1:100 in 1× binding buffer. Test compounds were prepared as 111× stocks in 100% DMSO. Kds were determined using an 11-point 3-fold compound dilution series with three DMSO control points. All compounds for Kd measurements were distributed by acoustic transfer (non-contact dispensing) in 100% DMSO. The compounds were then diluted directly into the assays such that the final concentration of DMSO was 0.9%. All reactions were performed in polypropylene 384-well plates. Each was a final volume of 0.02 mL. Assays were incubated with shaking for 1 hour at room temperature. Then the beads were pelleted and washed with wash buffer (1×PBS, 0.05% Tween 20) to remove displaced kinase and test compound. The washed based were resuspended in elution buffer (1 λPBS, 0.05% Tween […] non-biotinylated affinity ligand) and incubated at room temperature with shaking for 30 minutes. The kinase concentration in the eluates was measured by qPCR. qPCR reactions were assembled by adding 2.5 μL of kinase eluate to 7.5 μL of qPCR master mix containing […] amplicon primers and 0.15 μM amplicon probe. The qPCR protocol consisted of a 10 minute hot start at 95° C., followed by 35 cycles of 95° C. for 15 seconds, 60° C. for 1 minute.
Test compounds were prepared as 111× stocks in 100% DMSO. Kds were determined using an 11-point 3-fold compound dilution series with three DMSO control points. All compounds for Kd measurements were distributed by acoustic transfer (non-contact dispensing) in 100% DMSO. The compounds were then diluted directly into the assays such that the final concentration of DMSO was 0.9%. The Kds were determined using a compound top concentration of 30,000 nM. Kd measurements were performed in duplicate.
Binding constants (Kds) were calculated with a standard dose-response curve using the Hill equation: […]
The Hill Slope was set to −1. […]

The next data set deals with JAK1 JH2 (Homo sapiens (Human), UniProt P23458). Put plainly: JAK1 JH2 binding (Kd, Table 2). The note with it: JH2 domain.
Sequence of JAK1 JH2 (P23458 583-855): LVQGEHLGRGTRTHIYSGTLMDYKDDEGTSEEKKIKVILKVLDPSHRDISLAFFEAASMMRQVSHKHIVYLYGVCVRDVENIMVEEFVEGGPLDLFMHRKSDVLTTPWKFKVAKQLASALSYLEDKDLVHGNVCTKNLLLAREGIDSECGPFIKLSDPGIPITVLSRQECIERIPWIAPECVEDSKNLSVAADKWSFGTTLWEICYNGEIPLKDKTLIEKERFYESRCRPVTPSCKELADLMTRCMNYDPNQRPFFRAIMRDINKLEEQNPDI
The target in the next data set is TYK2 JH1 (Homo sapiens (Human), UniProt P29597). As to the kind of experiment: TYK2 JH1 binding (Kd, Table 2). The note with it: JH1 domain.
Sequence of TYK2 JH1 (P29597 897-1176): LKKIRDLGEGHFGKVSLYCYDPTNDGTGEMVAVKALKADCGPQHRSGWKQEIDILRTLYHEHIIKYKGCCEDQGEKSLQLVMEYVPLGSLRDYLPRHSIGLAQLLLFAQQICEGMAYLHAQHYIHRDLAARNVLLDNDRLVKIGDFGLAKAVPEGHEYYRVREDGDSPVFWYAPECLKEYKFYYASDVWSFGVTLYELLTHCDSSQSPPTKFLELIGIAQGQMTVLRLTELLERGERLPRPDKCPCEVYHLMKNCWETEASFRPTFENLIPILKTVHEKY
The target in the next data set is JAK3 JH1 (Homo sapiens (Human), UniProt P52333). Put plainly: JAK3 JH1 binding (Kd, Table 2). The note with it: JH1 domain.
Sequence of JAK3 JH1 (P52333 822-1111): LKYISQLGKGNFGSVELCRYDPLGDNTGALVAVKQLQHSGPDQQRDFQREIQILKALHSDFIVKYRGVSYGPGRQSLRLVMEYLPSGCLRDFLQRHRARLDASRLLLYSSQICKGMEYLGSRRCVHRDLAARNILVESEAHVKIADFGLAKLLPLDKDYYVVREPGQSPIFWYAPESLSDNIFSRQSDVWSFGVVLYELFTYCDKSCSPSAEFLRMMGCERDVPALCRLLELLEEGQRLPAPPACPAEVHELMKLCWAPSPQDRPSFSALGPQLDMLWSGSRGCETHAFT
The next data set addresses JAK1 JH1 (Homo sapiens (Human), UniProt P23458). As to the kind of experiment: JAK1 JH1 binding (Kd, Table 2). The note with it: JH1 domain.
A further data set deals with JAK2 JH1 (Homo sapiens (Human), UniProt O60674). As to the kind of experiment: JAK2 JH1 binding (Kd, Table 2). The note with it: JH1 domain.
Sequence of JAK2 JH1 (O60674 849-1124): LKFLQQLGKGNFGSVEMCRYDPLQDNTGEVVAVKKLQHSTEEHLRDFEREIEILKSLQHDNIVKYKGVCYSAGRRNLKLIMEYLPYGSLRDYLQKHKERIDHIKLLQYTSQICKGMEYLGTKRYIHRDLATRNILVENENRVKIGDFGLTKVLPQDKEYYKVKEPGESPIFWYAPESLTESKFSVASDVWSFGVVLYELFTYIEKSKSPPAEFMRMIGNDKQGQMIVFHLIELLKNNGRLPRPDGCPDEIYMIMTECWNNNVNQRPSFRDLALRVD
A further data set deals with JAK2 JH2 (Homo sapiens (Human), UniProt O60674). As to the kind of experiment: JAK2 JH2 binding (Kd, Table 2). The note with it: JH2 domain.
Sequence of JAK2 JH2 (O60674 545-809): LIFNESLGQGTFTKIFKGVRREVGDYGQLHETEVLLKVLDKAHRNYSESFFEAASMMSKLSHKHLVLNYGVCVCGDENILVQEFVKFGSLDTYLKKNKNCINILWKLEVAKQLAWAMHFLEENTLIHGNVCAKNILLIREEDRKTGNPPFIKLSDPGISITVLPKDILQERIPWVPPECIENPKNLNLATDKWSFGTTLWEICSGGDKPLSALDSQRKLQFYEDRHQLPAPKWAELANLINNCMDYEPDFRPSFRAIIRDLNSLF

Our source for the ring closure, isolated yield and Kd values is patent US20250213571A1, “TYK2 INHIBITORS AND USES THEREOF” (Alumis Inc., priority 2022, published 2025).

Where two headings read alike, the source gives them in different places. Where only a bound is given, the exact number is not on record here.

Sequence of JAK1 JH1 (P23458 875-1153): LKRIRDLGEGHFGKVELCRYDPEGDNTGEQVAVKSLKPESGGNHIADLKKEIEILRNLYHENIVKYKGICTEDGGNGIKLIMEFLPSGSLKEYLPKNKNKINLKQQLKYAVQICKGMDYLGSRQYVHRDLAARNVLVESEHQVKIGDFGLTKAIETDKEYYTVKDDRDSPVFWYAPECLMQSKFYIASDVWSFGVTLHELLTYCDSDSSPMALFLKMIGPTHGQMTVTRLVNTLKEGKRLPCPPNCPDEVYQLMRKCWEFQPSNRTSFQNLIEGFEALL
Sequence of human TYK2 (JH2domain-pseudokinase) (P29597 556-888): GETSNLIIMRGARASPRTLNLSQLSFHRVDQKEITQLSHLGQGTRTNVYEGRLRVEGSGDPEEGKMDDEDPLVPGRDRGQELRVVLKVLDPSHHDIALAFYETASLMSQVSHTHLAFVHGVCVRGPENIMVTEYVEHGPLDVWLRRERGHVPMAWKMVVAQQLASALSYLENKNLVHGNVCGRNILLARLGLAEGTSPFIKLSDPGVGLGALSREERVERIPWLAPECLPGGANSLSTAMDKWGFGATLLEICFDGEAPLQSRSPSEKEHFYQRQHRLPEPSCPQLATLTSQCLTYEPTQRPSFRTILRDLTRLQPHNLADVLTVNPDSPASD

The compound `C[C@@H]1COCc2cc(cn3ccnc23)Nc2cc(N(C)C(=O)OC(C)(C)C)c3ncc(n3n2)C(=O)N1` came in with a ring closure, isolated yield in data set [1] (from C[C@H](COCc1cc(N)cn2ccnc12)NC(=O)c1cnc2c(N(C)C(=O)OC(C)(C)C)cc(Cl)nn12, Pd2(dba)3/Xantphos/Cs2CO3, 1,4-dioxane, 80.0 °C) of 34%.

`C[C@@H]1COc2ccnc3cnc(cc23)Nc2cc(N(C)C(=O)OC(C)(C)C)c3ncc(n3n2)C(=O)N1` registered a ring closure, isolated yield in data set [1] (from C[C@H](COc1ccnc2cnc(N)cc12)NC(=O)c1cnc2c(N(C)C(=O)OC(C)(C)C)cc(Cl)nn12, Pd2(dba)3/Xantphos/Cs2CO3, 1,4-dioxane, 57.0 mM, 80.0 °C, 16.0 h) of 54%.

In the case of `CNc1cc2nn3c(cnc13)C(=O)O[C@H](C)COCc1cc(c3nnn(C)c3c1)N2` [Compound 3, (7R,E)-3′,7-Dimethyl-1^8-(methylamino)-3^1H-5,8-dioxa-2-aza-1(6,3),3(4,6)-diimidazo[1,2-b]pyridazinacyclononaphan-9-one], the ring closure, isolated yield in data set [1] (from CNc1cc(Cl)nn2c(C(=O)O[C@H](C)COCc3cc(N)c4nnn(C)c4c3)cnc12, Pd2(dba)3/BINAP/Cs2CO3, dioxane, 27.5 mM, 16.0 h) worked out at 33%. The values for the Kd (in data set [2]; on JAK1 JH2; at TYK2 JH1) were < 0.01 µM, 1 to 10 µM and ≥ 30 µM, respectively.

Regarding `[2H]C1([2H])OC[C@@H](C)NC(=O)c2cnc3c(NC)cc(nn23)Nc2cc1cc1c2nnn1C` [Compound 7, (7R,E)-3′,7-Dimethyl-1^8-(methylamino)-3^1H-5-oxa-2,8-diaza-1(6,3),3(4,6)-diimidazo[1,2-b]pyridazinacyclononaphan-9-one-4,4-d2], the Kd at JAK3 JH1 was 10 to 30 µM; in data set [2], < 0.01 µM; on JAK1 JH1 it was ≥ 30 µM; on JAK1 JH2, 0.01 to 1 µM; at TYK2 JH1, 1 to 10 µM; at JAK2 JH1, ≥ 30 µM. On JAK2 JH2, the Kd lay in the range of 1 to 10 µM.

Regarding `CNc1cc2nn3c(cnc13)C(=O)N[C@H](C)COCc1cc(c3c(c1)ncn3C)N2` [Compound 8, (7R,E)-3′,7-Dimethyl-1^8-(methylamino)-3^1H-5-oxa-2,8-diaza-1(6,3)-imidazo[1,2-b] pyridazina-3(7,5)-benzo[d]imidazolacyclononaphan-9-one], the dissociation constant Kd at JAK3 JH1 was 10 to 30 µM; on JAK1 JH1, ≥ 30 µM; on JAK1 JH2, 0.01 to 1 µM; at TYK2 JH1, 1 to 10 µM; at JAK2 JH1, ≥ 30 µM; on JAK2 JH2 it was 1 to 10 µM.

For the compound `CNc1cc2nc3c(cnn13)C(=O)N[C@H](C)COCc1cc(c3nnn(C)c3c1)N2` [Compound 33], the Kd on JAK3 JH1 is ≥ 30 µM; in data set [2], < 0.01 µM; at JAK1 JH1, ≥ 30 µM; on JAK1 JH2, 1 to 10 µM; on TYK2 JH1, ≥ 30 µM; on JAK2 JH1 it was ≥ 30 µM. Besides, the Kd on JAK2 JH2 was ≥ 30 µM.

In the case of `CNc1cc2nc3c(cnn13)C(=O)N[C@H](C)COCc1cc(c3nn(C)nc3c1)N2` [Compound 34], the Kd was ≥ 30 µM at JAK3 JH1; < 0.01 µM in data set [2]; ≥ 30 µM at JAK1 JH1; 0.01 to 1 µM at JAK1 JH2; ≥ 30 µM at TYK2 JH1; ≥ 30 µM on JAK2 JH1. At JAK2 JH2, this compound came in with a Kd of 10 to 30 µM.

“(14R)-19-[(4-methoxyphenyl)methyl]-21-([(4-methoxyphenyl)methyl](methyl)amino-7,14-dimethyl-12-oxa-2,5,6,7,15,18,19,22,23-nonaazapentacyclo[15.5.2.1^(3,10.0^(4,8.0^(20,24]pentacosa-1(23),3(25),4(8),5,9,17,20(24),21-octaen-16-one” showed a ring closure, isolated yield in data set [1] (Pd2(dba)3/Xantphos/Cs2CO3, 1,4-dioxane, 36.5 mM, 100.0 °C) of 74%.

Consider “tert-Butyl ((7R,E)-7-(hydroxymethyl)-3^1-methyl-9-oxo-3^1H-5-oxa-2,8-diaza-1(6,3),3(4,6)-diimidazo[1,2-b]pyridazinacyclononaphane-1^8-yl)(methyl)carbamate”, for which the ring closure, isolated yield in data set [1] (Pd2(dba)3/BINAP/Cs2CO3, dioxane, 10.0 mM) was found to be 25%.

“tert-butyl N-methy 1-N-[(12R)-12-methyl-10-oxo-14-oxa-2,4,5,7,11,20-hexaazapentacyclo [13.6.2.2^{3,6}0.^{5,9}0.^{19,23}]pentacosa 1(21),3,6,8,15,17,19,22,24-nonaen-24-yl]carbamate”: in data set [1] (Pd2(dba)3/Xantphos, 1,4-dioxane, 34.0 mM, 80.0 °C), the ring closure, isolated yield was 66%.

For “tert-butyl N-methyl-N-[(12R)-12-methyl-10-oxo-2,4,5,7,11,14,16,18-octaazapentacyclo[13.6.2.2^(3,6.0^(5,9.0^(19,23]pentacosa-1(21),3,6,8,15,17,19,22,24-nonaen-24-yl]carbamate”, the ring closure, isolated yield in data set [1] (Pd2(dba)3/Xantphos/Cs2CO3, 1,4-dioxane, 100.0 mM, 85.0 °C) stood at 18%.

In turn, “tert-butyl N-methyl-N-[(12R)-12-methyl-10-oxo-2,4,5,7,11,14,18-heptaazapentacyclo[13.6.2.2^(3,6.0^(5,9.0^(19,23]pentacosa-1(21),3,6,8,15,17,19,22,24-nonaen-24-yl]carbamate” came in with a ring closure, isolated yield in data set [1] (Pd2(dba)3/Xantphos/Cs2CO3, 1,4-dioxane, 85.0 mM, 90.0 °C) of 62%.

“tert-butyl N-methyl-N-[(12R)-12-methyl-10-oxo-14-oxa-2,4,5,7,11,18-hexaazapentacyclo[13.6.2.2^(3,6.0^(5,9.0^(19,23]pentacosa-1(22),3,6,8,15,17,19(23),20,24-nonaen-24-yl]carbamate” yielded a ring closure, isolated yield in data set [1] (Pd2(dba)3/Cs2CO3, 1,4-dioxane, 42.3 mM, 80.0 °C) of 67%.

Take “tert-butyl N-methyl-N-[(12R)-12-methyl-10-oxo-14-oxa-2,4,5,7,11,22-hexaazapentacyclo[13.6.2.2^(3,6.0^(5,9.0^(19,23]pentacosa-1(21),3,6,8,15,17,19,22,24-nonaen-24-yl]carbamate”: the ring closure, isolated yield in data set [1] (Pd2(dba)3/Xantphos/Cs2CO3, 1,4-dioxane, 95.0 mM, 80.0 °C) turned out to be 86%.

For the compound “tert-butyl N-methyl-N-[(14R)-14-methyl-16-oxo-12-oxa-2,7,8,15,19,23,24-heptaazapentacyclo[15.5.2.1^(3,10.0^(5,9.0^(20,24]pentacosa-1(23),3(25),4,6,9,17,19,21-octaen-21-yl]carbamate”, the ring closure, isolated yield in data set [1] (Pd2(dba)3/BINAP/Cs2CO3, 1,4-dioxane, 23.0 mM, 80.0 °C) amounted to 71%.

Broadly, the Kd is the constant that tells how readily two partners part at equilibrium.
